According to patent US20220370322A1, “UV BLOCKING COMPOSITION COMPRISING RED ALGAE-DERIVED FLORIDOSIDE AND AMINE GROUP-CONTAINING COMPOUND” (ATHENA CO., LTD., priority 2019, published 2022):
“And” between values parts separate entries of the source, which are not always exact repeats. Equal values may be shown once.

Columns and labels:
[1] = test system: Raw 264.7 cells; test: Cytotoxicity test (Cell Counting Kit-8); type: cell-based; details: for Viability (%): 24 hours, CCK-8; for Absorbance AVERAGE: absorbance at 450 nm, mean of three; for Absorbance: single replicates, measured at 450 nm
Experimental: A cytotoxicity test was performed on the sample, which had been identified to be floridoside, by using the Cell Counting Kit-8 kit (DOJINDO, CK04-05).
Raw 264.7 cells were cultured at 1×10^4 cells/well in a DMEM medium containing 10% FBS in a 96-well plate at 37° C. in 5% CO2 incubator for 24 hours, and then treated with a drug. After the cells were cultured at 37° C. in the 5% CO2 incubator for 24 hours, CCK-8 solution was added, followed by incubation at 37° C. for 2 hours, and then the absorbance was measured at 450 nm.

[2] = test system: skin; test: Primary patch test for human body application (skin irritation, ICDRG criteria); type: in vivo; set-up: key to Mean score of the skin reaction: mean of ICDRG-graded reactions via skin reaction formula; details: 31 subjects
Experimental: A primary patch test for human body application was performed on the sample.
Subjects of the test were determined for skin irritation by a dermatologist a total of 4 times (the date of a patch, the date of removal of the patch, and 24 hours and 120 hours after removal of the patch) during the test period.
The skin patch test was performed using the Van der Bend chamber (Van der Bend, Brielle, the Netherlands). For each of 31 subjects, the sample was applied between the shoulder blade and the waist line on the basis of the spin on the back by using the Van der Bend chamber.
A site of the test was washed with distilled water and dried, and then the sample was dissolved in 10% distilled water. Thereafter, 35 μl was dropped in the Van der Bend chamber, which was then put and fixed on the site of the test. The sample was patched on the skin for 48 hours, and after the removal of the patch, the site of the test was marked with a marking pen, and the site of the test was observed after 30 minutes, 24 hours, and 120 hours.
With respect to the skin reaction, the degrees of irritation were classified according to the evaluation criteria of the International Contact Dermatitis Research Group (ICDRG) as shown in Table 2 below.
The mean score of the skin reaction was calculated by the skin reaction calculation formula, and then the presence or absence of irritation was determined according to the decision table of the skin patch test.

SMILES: OCC(CO)O[C@H]1O[C@H](CO)[C@H](O)[C@H](O)[C@H]1O [Floridoside, 2-O-α-D-galactopyranosylglycerol]
- Viability (%) ([1]; 1 ppm, Raw 264.7 cells): 83%
- Absorbance AVERAGE ([1]; 1 ppm): 2.594
- Absorbance ([1]; 1 ppm): 2.73 and 2.59 and 2.47
- Viability (%) ([1]; 10 ppm, Raw 264.7 cells): 88%
- Absorbance AVERAGE ([1]; 10 ppm): 2.746
- Absorbance ([1]; 10 ppm): 2.69 and 2.73 and 2.81
- Viability (%) ([1]; 100 ppm, Raw 264.7 cells): 88%
- Absorbance AVERAGE ([1]; 100 ppm): 2.759
- Absorbance ([1]; 100 ppm): 2.68 and 2.79 and 2.81
- Viability (%) ([1]; 500 ppm, Raw 264.7 cells): 89%
- Absorbance AVERAGE ([1]; 500 ppm): 2.790
- Absorbance ([1]; 500 ppm): 2.72 and 2.8 and 2.85
- Viability (%) ([1]; 1000 ppm, Raw 264.7 cells): 89%
- Absorbance AVERAGE ([1]; 1000 ppm): 2.781
- Absorbance ([1]; 1000 ppm): 2.75 and 2.77 and 2.82
- Cell protective effect ([1]; Raw 264.7 cells, 1-1000 ppm, conclusion in words): excellent cell protective effect
- Determination (skin patch test) ([2]; decision table of the skin patch test): No irritation
- Mean score of the skin reaction ([2]; skin reaction calculation formula): 0.00
- Degree of reaction + (first line), number of subjects ([2]; After 30 minutes): 0
- Degree of reaction + (second line), number of subjects ([2]; After 30 minutes): 0
- Degree of reaction +++, number of subjects ([2]; After 30 minutes): 0
- Degree of reaction ++, number of subjects ([2]; After 30 minutes): 0
- Degree of reaction + (first line), number of subjects ([2]; After 24 hours): 0
- Degree of reaction + (second line), number of subjects ([2]; After 24 hours): 0
- Degree of reaction +++, number of subjects ([2]; After 24 hours): 0
- Degree of reaction ++, number of subjects ([2]; After 24 hours): 0
- Degree of reaction + (first line), number of subjects ([2]; After 120 hours): 0
- Degree of reaction + (second line), number of subjects ([2]; After 120 hours): 0
- Degree of reaction +++, number of subjects ([2]; After 120 hours): 0
- Degree of reaction ++, number of subjects ([2]; After 120 hours): 0
